Measured values: the NIST ThermoML archive (doi:10.1016/j.jct.2017.05.001)

Assay: wn = mass fraction of the nth substance listed
Conditions: Liquid; for mass density: Vibrating tube method

OCCNCCO [diethanolamine] + O
viscosity [mPa·s]
Conditions | w1 = 0.0993 | w1 = 0.1 | w1 = 0.2 | w1 = 0.3 | w1 = 0.3002 | w1 = 0.3997 | w1 = 0.4
293.15 K, 100 kPa, Concentric cylinders viscometry | – | 1.486 | 2.287 | 3.621 | – | – | 6.311
293.15 K, 100 kPa, Falling or rolling sphere viscometry | 1.493 | – | 2.219 | – | 3.633 | 6.248 | –
293.15 K, 5000 kPa, Falling or rolling sphere viscometry | 1.49 | – | 2.215 | – | 3.617 | 6.351 | –
293.15 K, 10000 kPa, Falling or rolling sphere viscometry | 1.486 | – | 2.214 | – | 3.635 | 6.416 | –
293.15 K, 15000 kPa, Falling or rolling sphere viscometry | 1.49 | – | 2.217 | – | 3.634 | 6.463 | –
293.15 K, 20000 kPa, Falling or rolling sphere viscometry | 1.487 | – | 2.217 | – | 3.661 | 6.534 | –
293.15 K, 25000 kPa, Falling or rolling sphere viscometry | 1.488 | – | 2.218 | – | 3.676 | 6.598 | –
293.15 K, 30000 kPa, Falling or rolling sphere viscometry | 1.487 | – | 2.22 | – | 3.688 | 6.6 | –
293.15 K, 40000 kPa, Falling or rolling sphere viscometry | 1.486 | – | 2.221 | – | 3.714 | 6.683 | –
293.15 K, 60000 kPa, Falling or rolling sphere viscometry | 1.487 | – | 2.242 | – | 3.766 | 6.853 | –
293.15 K, 80000 kPa, Falling or rolling sphere viscometry | 1.49 | – | 2.26 | – | 3.818 | 6.973 | –
293.15 K, 100000 kPa, Falling or rolling sphere viscometry | 1.494 | – | 2.277 | – | 3.874 | 7.169 | –
313.15 K, 100 kPa, Concentric cylinders viscometry | – | 0.914 | 1.343 | 1.977 | – | – | 3.197
313.15 K, 100 kPa, Falling or rolling sphere viscometry | 0.9237 | – | 1.304 | – | 1.98 | 3.168 | –
313.15 K, 5000 kPa, Falling or rolling sphere viscometry | 0.915 | – | 1.292 | – | 1.976 | 3.174 | –
313.15 K, 10000 kPa, Falling or rolling sphere viscometry | 0.9172 | – | 1.296 | – | 1.983 | 3.222 | –
313.15 K, 15000 kPa, Falling or rolling sphere viscometry | 0.9188 | – | 1.301 | – | 1.993 | 3.248 | –
313.15 K, 20000 kPa, Falling or rolling sphere viscometry | 0.9192 | – | 1.303 | – | 2.004 | 3.239 | –
313.15 K, 25000 kPa, Falling or rolling sphere viscometry | 0.9215 | – | 1.309 | – | 2.012 | 3.28 | –
313.15 K, 30000 kPa, Falling or rolling sphere viscometry | 0.9226 | – | 1.312 | – | 2.022 | 3.303 | –
313.15 K, 40000 kPa, Falling or rolling sphere viscometry | 0.9253 | – | 1.318 | – | 2.039 | 3.361 | –
313.15 K, 60000 kPa, Falling or rolling sphere viscometry | 0.9334 | – | 1.335 | – | 2.08 | 3.438 | –
313.15 K, 80000 kPa, Falling or rolling sphere viscometry | 0.9414 | – | 1.353 | – | 2.119 | 3.538 | –
313.15 K, 100000 kPa, Falling or rolling sphere viscometry | 0.9509 | – | 1.371 | – | 2.158 | 3.625 | –
333.15 K, 100 kPa, Concentric cylinders viscometry | – | 0.64 | 0.871 | 1.248 | – | – | 1.864
333.15 K, 100 kPa, Falling or rolling sphere viscometry | 0.6268 | – | 0.8581 | – | 1.247 | 1.885 | –
333.15 K, 5000 kPa, Falling or rolling sphere viscometry | 0.6258 | – | 0.8575 | – | 1.243 | 1.872 | –
333.15 K, 10000 kPa, Falling or rolling sphere viscometry | 0.6274 | – | 0.8602 | – | 1.248 | 1.886 | –
333.15 K, 15000 kPa, Falling or rolling sphere viscometry | 0.6269 | – | 0.8632 | – | 1.254 | 1.9 | –
333.15 K, 20000 kPa, Falling or rolling sphere viscometry | 0.6303 | – | 0.8673 | – | 1.258 | 1.912 | –
333.15 K, 25000 kPa, Falling or rolling sphere viscometry | 0.6312 | – | 0.8717 | – | 1.265 | 1.896 | –
333.15 K, 30000 kPa, Falling or rolling sphere viscometry | 0.6339 | – | 0.8763 | – | 1.271 | 1.943 | –
333.15 K, 40000 kPa, Falling or rolling sphere viscometry | 0.6383 | – | 0.8845 | – | 1.283 | 1.973 | –
333.15 K, 60000 kPa, Falling or rolling sphere viscometry | 0.6452 | – | 0.8989 | – | 1.312 | 2.029 | –
333.15 K, 80000 kPa, Falling or rolling sphere viscometry | 0.6532 | – | 0.9136 | – | 1.337 | 2.086 | –
333.15 K, 100000 kPa, Falling or rolling sphere viscometry | 0.6623 | – | 0.9264 | – | 1.365 | 2.136 | –

mass density [kg/m3]
Conditions | w1 = 0.0993 | w1 = 0.2 | w1 = 0.3002 | w1 = 0.3997
293.15 K, 100 kPa | 1009.4 | 1021.6 | 1034.5 | 1047.5
293.15 K, 500 kPa | 1009.5 | 1021.7 | 1034.7 | 1047.7
293.15 K, 1000 kPa | 1009.7 | 1021.9 | 1034.8 | 1047.9
293.15 K, 2000 kPa | 1010.2 | 1022.3 | 1035.2 | 1048.2
293.15 K, 5000 kPa | 1011.4 | 1023.5 | 1036.3 | 1049.3
293.15 K, 10000 kPa | 1013.6 | 1025.5 | 1038.2 | 1051
293.15 K, 15000 kPa | 1015.6 | 1027.4 | 1040 | 1052.8
293.15 K, 20000 kPa | 1017.7 | 1029.4 | 1041.8 | 1054.5
293.15 K, 30000 kPa | 1021.8 | 1033.3 | 1045.4 | 1058
293.15 K, 40000 kPa | 1025.9 | 1037 | 1049 | 1061.4
293.15 K, 50000 kPa | 1029.7 | 1040.7 | 1052.5 | 1064.7
293.15 K, 60000 kPa | 1033.6 | 1044.4 | 1055.9 | 1068
293.15 K, 70000 kPa | 1037.6 | 1048 | 1059.3 | 1071.2
293.15 K, 80000 kPa | 1041.1 | 1051.4 | 1062.5 | 1074.3
293.15 K, 90000 kPa | 1044.8 | 1054.9 | 1065.8 | 1077.4
293.15 K, 100000 kPa | 1048.5 | 1058.4 | 1069.1 | 1080.6
293.15 K, 110000 kPa | 1051.9 | 1061.6 | 1072.1 | 1083.5
293.15 K, 120000 kPa | 1055.4 | 1064.9 | 1075.3 | 1086.5
293.15 K, 130000 kPa | 1059 | 1068.3 | 1078.5 | 1089.6
293.15 K, 140000 kPa | 1062.2 | 1071.4 | 1081.4 | 1092.4
313.15 K, 100 kPa | 1002.9 | 1014.3 | 1026 | 1038
313.15 K, 500 kPa | 1003.1 | 1014.4 | 1026.2 | 1038.2
313.15 K, 1000 kPa | 1003.4 | 1014.6 | 1026.4 | 1038.4
313.15 K, 2000 kPa | 1003.7 | 1015 | 1026.7 | 1038.7
313.15 K, 5000 kPa | 1005 | 1016.2 | 1027.9 | 1039.8
313.15 K, 10000 kPa | 1007 | 1018.2 | 1029.7 | 1041.7
313.15 K, 15000 kPa | 1009 | 1020.1 | 1031.6 | 1043.4
313.15 K, 20000 kPa | 1011 | 1022 | 1033.4 | 1045.1
313.15 K, 30000 kPa | 1015.1 | 1025.8 | 1037.1 | 1048.7
313.15 K, 40000 kPa | 1019.1 | 1029.7 | 1040.7 | 1052.3
313.15 K, 50000 kPa | 1022.8 | 1033.2 | 1044.1 | 1055.6
313.15 K, 60000 kPa | 1026.6 | 1036.9 | 1047.6 | 1059
313.15 K, 70000 kPa | 1030.4 | 1040.4 | 1051 | 1062.2
313.15 K, 80000 kPa | 1033.9 | 1043.8 | 1054.3 | 1065.4
313.15 K, 90000 kPa | 1037.3 | 1047.1 | 1057.5 | 1068.5
313.15 K, 100000 kPa | 1040.9 | 1050.6 | 1060.8 | 1071.6
313.15 K, 110000 kPa | 1044.4 | 1053.9 | 1063.9 | 1074.7
313.15 K, 120000 kPa | 1047.7 | 1057.1 | 1067.1 | 1077.7
313.15 K, 130000 kPa | 1051.1 | 1060.3 | 1070.2 | 1080.7
313.15 K, 140000 kPa | 1054.4 | 1063.5 | 1073.3 | 1083.6
333.15 K, 100 kPa | 993.4 | 1004.2 | 1015.4 | 1026.6
333.15 K, 500 kPa | 993.7 | 1004.4 | 1015.5 | 1026.8
333.15 K, 1000 kPa | 993.9 | 1004.6 | 1015.7 | 1027
333.15 K, 2000 kPa | 994.3 | 1005 | 1016.2 | 1027.4
333.15 K, 5000 kPa | 995.5 | 1006.2 | 1017.3 | 1028.5
333.15 K, 10000 kPa | 997.6 | 1008.2 | 1019.3 | 1030.4
333.15 K, 15000 kPa | 999.6 | 1010.2 | 1021.2 | 1032.3
333.15 K, 20000 kPa | 1001.6 | 1012.1 | 1023.1 | 1034.2
333.15 K, 30000 kPa | 1005.7 | 1016 | 1026.9 | 1037.8
333.15 K, 40000 kPa | 1009.7 | 1020 | 1030.6 | 1041.6
333.15 K, 50000 kPa | 1013.4 | 1023.6 | 1034.1 | 1045
333.15 K, 60000 kPa | 1017.2 | 1027.1 | 1037.7 | 1048.4
333.15 K, 70000 kPa | 1020.9 | 1030.8 | 1041.1 | 1051.8
333.15 K, 80000 kPa | 1024.5 | 1034.2 | 1044.4 | 1055
333.15 K, 90000 kPa | 1028 | 1037.5 | 1047.7 | 1058.2
333.15 K, 100000 kPa | 1031.5 | 1041 | 1051.1 | 1061.5
333.15 K, 110000 kPa | 1034.9 | 1044.2 | 1054.3 | 1064.6
333.15 K, 120000 kPa | 1038.4 | 1047.7 | 1057.5 | 1067.8
